Assays:
[1] = target: T1, pepsin (Sus scrofa, UniProt P00791); assay: Enzymatic stability in simulated gastric fluid (SGF) with pepsin; type: in vitro ADME, porcine; conditions: SGF with pepsin, 37 °C, 100 rpm, 1 h; RIA; n = 3
T1 construct: purchased Sigma-Aldrich; host or cells: porcine gastric mucosa
Method: (§1) Enzymatic degradation in the presence of proetolytic enzymes pepsin and pancreatin was investigated. Peptide-loaded particles were added to 100 mL of artificial gastric fluid (simulated gastric fluid—SGF) with pepsin, or artificial intestinal fluid (simulated intestinal fluid—SIF) with pancreatin and incubated at 37 °C under moderate stirring at 100 rpm. SGF and SIF were prepared as per European Pharmacopoeia specifications. A total of 1000 µL samples were collected at determined time intervals for 120 min, and an equal volume of ice-cold reagent was added to stop the enzymatic reaction (0.10 M NaOH for SGF and 0.10 M HCl for SIF). Samples were analyzed by radioimmunoassay.

[2] = tested on: T2, pepsin; assay: as above; type: in vitro ADME, porcine; conditions: pig, simulated gastric fluid (SGF) with pepsin; SGF with pepsin (Ph. Eur.), 37 °C, 100 rpm, 30 min; RIA; mean ± SD, n = 3; read-out: active MCH measured after incubation in SGF
T2 construct: purchased Sigma-Aldrich; host or cells: porcine gastric mucosa
Method: as §1

[3] = tested on: pancreatin; assay: Enzymatic stability in simulated intestinal fluid (SIF) with pancreatin; type: in vitro ADME, porcine; conditions: 37 °C, 100 rpm, RIA, mean ± SD, n = 3
Method: as §1

[4] = tested on: Caco-2 cells; assay: MTT cell viability assay; type: cell-based, human; conditions: Caco-2, MTT, n = 10
Method: A Caco-2 immortalized human adenocarcinoma cell line was purchased from The European Collection of Cell Cultures (ECACC). Cells were seeded and maintained in plastic cell culture flasks in Dulbecco's Modified […] medium (DMEM Sigma-Aldrich Ltd., Budapest, Hungary). Cell culturing media was supplemented with 2 mM L-glutamine, 100 mg/L gentamycin (Sigma-Aldrich Ltd., Budapest, Hungary) and 10% heat inactivated fetal bovine serum (FBS) (Sigma-Aldrich Ltd., Budapest, Hungary). Cells were stored in incubators at 37 °C in a 5% CO2 atmosphere. The colon epithelial Caco-2 cell line forms a single cell layer with well-defined tight junctions. Caco-2 cell viability was evaluated using the MTT method. Cells were harvested and seeded at a density of 10^4 cells/well on flat-bottom 96-well tissue culture plates. Cells were allowed to grow for 7 days under the abovementioned conditions. For the viability measurements, the DMEM was removed. […] Mitochondrial activity of the cells was determined after 3 h incubation with MTT at the concentration of 0.50 mg/mL. […] The absorbance of dissolved formazan crystals correlates with the ratio of the living cells. Absorbance was measured with a FLUOstar OPTIMA Micro-plate Reader (BMG LABTECH, Offenburg, Germany) at 570 nm against a 690 nm reference.

T1 sequence (P00791 60-385): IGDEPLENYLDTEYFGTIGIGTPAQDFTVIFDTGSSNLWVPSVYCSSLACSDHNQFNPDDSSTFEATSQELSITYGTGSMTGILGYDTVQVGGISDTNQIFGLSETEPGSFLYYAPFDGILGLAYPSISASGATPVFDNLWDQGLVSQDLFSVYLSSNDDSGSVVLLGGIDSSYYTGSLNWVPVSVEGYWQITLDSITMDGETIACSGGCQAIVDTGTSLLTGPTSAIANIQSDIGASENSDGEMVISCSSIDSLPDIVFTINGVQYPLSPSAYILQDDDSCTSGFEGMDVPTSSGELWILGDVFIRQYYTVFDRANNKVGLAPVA

**Q.** With `CSCC[C@@H]1NC(=O)[C@@H](NC(=O)[C@H](CCCNC(=N)N)NC(=O)[C@H](CC(C)C)NC(=O)[C@H](CCSC)NC(=O)[C@H](CC(=O)O)NC(=O)[C@H](Cc2ccccc2)NC(=O)[C@@H](N)CC(=O)O)CSSC[C@@H](C(=O)N[C@@H](Cc2c[nH]c3ccccc23)C(=O)N[C@@H](CCC(N)=O)C(=O)N[C@H](C(=O)O)C(C)C)NC(=O)[C@@H]2CCCN2C(=O)[C@H](CCCNC(=N)N)NC(=O)[C@H](Cc2ccc(O)cc2)NC(=O)[C@H](C(C)C)NC(=O)[C@H](CCCNC(=N)N)NC(=O)CNC(=O)[C@H](CC(C)C)NC1=O` [MCH, Melanin concentrating hormone] as the compound, how does the “degradation after incubation in SGF” value [1] read?
**A.** completely degraded

**Q.** What about the remaining at 0.5 h [2] of the same compound?
**A.** 3 ± 0.5%

**Q.** And the “MCH recovery after incubation with SIF” value ([3]; SIF with pancreatin, 2 h)?
**A.** 1.00 ± 0.50%

**Q.** And the remaining at 0.5 h ([3]; pig, simulated intestinal fluid (SIF) with pancreatin, SIF with pancreatin (Ph. Eur.), 30 min, read-out: active MCH measured after incubation in SIF)?
**A.** 8 ± 0.5%

**Q.** For `CCOCCOCCO` [Transcutol HP, Diethylene glycol monoethyl ether], which “IC50 (cytotoxicity)” value ([4]; 30 min incubation with sample, 3 h MTT 0.50 mg/mL, absorbance 570 nm) is on record?
**A.** 0.37 v/v%

**Q.** With `O.O.[Ca+2].[Cl-].[Cl-]` [calcium-chloride dihydrate, Calcium chloride dihydrate] as the compound, how does the “toxicity in MTT assay (in words)” value ([4]; 30 min incubation, also at higher concentrations) read?
**A.** did not show relevant toxicity
